For series [1] the following is noted: 298.15 K; Liquid; Gas chromatography.
A short description of series [2]: Boiling temperature at pressure P. As to conditions: Liquid, Gas chromatography.

These results are taken from the NIST ThermoML archive (doi:10.1016/j.jct.2015.06.002).

Numbers after ± are expanded uncertainties.

Usually vapor or sublimation pressure stands for the equilibrium pressure above the liquid or solid. Regarding `C/C=C/C=C/CCCCCCCO` [(E,E)-8,10-dodecadien-1-ol], the “vapor or sublimation pressure” value in series [1] is reported as 8.3e-05 ± 2.5e-05 kPa. The results for the “Boiling temperature at pressure P” value in series [2] (0.267 kPa) and in series [2] (101.33 kPa) were 116 ± 20 °C and 276.0 ± 20 °C, respectively.
